Data taken from patent publication US9682928B2 (NeuroPro Therapeutics, Inc., priority 2009, dated 2017).
Where “and” joins values, the source holds several entries; their conditions need not be identical. Equal entries are not always repeated. Entries after “also recorded” stand apart in the source; their conditions may differ. Where two headings read alike, the source gives them in different places.

What was measured:
[1] = test system: Male Rj: NMRI mice; test: Formalin paw test (late phase) in the mouse; assay type: in vivo; settings: for Antinociception compared to gabapentin (584 μmol/kg; 100 mg/kg): late phase, at highest two doses (NTP-2014, NTP-2024) or highest dose (NTP-2026, Bumetanide)
How it was run: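 Male NMRI mice received an intraplantar injection of 5% formalin (25 μl) into the left hind paw. Licking of the injected paw was scored at 1-min intervals from 15 to 50 min, blind, with 10 mice per group. Treated groups were compared with vehicle by Mann-Whitney U test; gabapentin 100 mg/kg i.p. served as reference.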

[2] = Diuresis in rat (urine volume, sodium and potassium excretion); assay type: in vivo; settings: for Diuresis as measured by increased urine output and Na+/K+ excretion: rat, through 8 hours post-dose
Experimental: (§1) The animals were fasted overnight prior to dosing and had no access to drinking water prior to any pretreatment. Food and water were withheld through the terminal sample collection or for the first 6 hours of blood sample collection, where applicable. Prior to test article administration all animals were pretreated with a single IP dose of PBx. At approximately 5 to 6 minutes prior to dosing all animals received a single oral (PO) gavage dose of 0.9% Sodium Chloride for Injection, USP, at a dose volume of 15 mL/kg. The vehicle, DMSO, and the test articles, NTP-2024 and NTP-2006, were administered via a single IP dose at a dose volume of 1 mL/kg. Cumulative urine volume, sodium excretion, and potassium excretion graphs are illustrated in FIGS. 27, 28, and 29.
as §1, with “Animals” for “The animals”, “PBX.” for “PBx.”, “mL/g.” for “mL/kg.”, “compounds (e.g., NTP-2014)” for “articles, NTP-2024 and NTP-2006,”, “mL/kg.” for “mL/kg. Cumulative urine volume, sodium excretion, and potassium excretion graphs are illustrated in FIGS. 27, 28, and 29.”
as §1, with “Animals” for “The animals”, “0.15” for “15”, “FIG. 27 illustrates cumulative” for “Cumulative”, “volume.” for “volume, sodium excretion, and potassium excretion graphs are illustrated in FIGS. 27, 28, and 29.”
as §1, with “PBX.” for “PBx.”, “FIG. 28 illustrates cumulative” for “Cumulative urine volume,”, “excretion.” for “excretion, and potassium excretion graphs are illustrated in FIGS. 27, 28, and 29.”
as §1, with “PBX.” for “PBx.”, “FIG. 29 illustrates cumulative” for “Cumulative urine volume, sodium excretion, and”, “excretion.” for “excretion graphs are illustrated in FIGS. 27, 28, and 29.”

[3] = Blood levels in rat following IP administration; assay type: in vivo; settings: for Concentration of NTP-2000 (bumetanide) in rat blood: after NTP-2024 100 mg/kg IP
[4] = molecular target: T1, α4β3γ2 GABAA receptor isoform (Homo sapiens, UniProt P18507+P28472+P48169); test: Whole-cell patch clamp, transfected HEK-293T cells; assay type: cell-based, rat or human
T1 construct: expressed in transfected cells; host or cells: HEK-293T, transient transfection
Experimental: The addition of GABA to […] activates the recombinant expressed GABAA receptors, creating an ion movement through the ion channel in the GABAA receptor. The electrical current generated by the movement of chloride ions into the cells can be quantified.
HEK-293T cells were transiently transfected with rat or human GABAA receptor subunits. Whole-cell patch clamp recording was performed at −50 mV unless otherwise indicated. Test compounds was diluted from a freshly made stock in DMSO, GABA was prepared from a frozen stock. For each experiment GABA or GABA+a test compound was applied for 5 seconds, and the electrical current generated by the movement of chloride ions into the cells was measured and recorded as a trace of current versus time.
Compounds described herein (e.g., NTP-2014) were tested at high and low GABA concentrations against multiple GABAA receptor isoforms (e.g., α1β3γ2, α2β3 γ2, α3β3γ2, α3β3γ2, α4β3γ2, α5β3γ2, α6β3γ2). […] NTP-2014 inhibits the currents in the parasynaptic α4 GABAA receptor isoform in GABAergic interneurons. […]

[5] = Solubility in dosing vehicle (0.2% HPMC in physiological saline); assay type: physicochemical; settings: NTP-2024: 180 mg/kg or 18 mg/ml; NTP-2026: 100 mg/kg or 10 mg/ml
[6] = i.p. 30 minutes before the test, 50 μmol/kg (NTP-2006 23.9, NTP-2024 21.7, NTP-1007 19.3, NTP-2014 21, NTP-2026 23.1 mg/kg)
[7] = i.p., 250 μmol/kg (NTP-2006 119, NTP-2024 108, NTP-1007 96.5, NTP-2014 105, NTP-2026 116 mg/kg)
[8] = i.p., 500 μmol/kg (NTP-2006 239, NTP-2024 217, NTP-1007 193, NTP-2014 210, NTP-2026 231 mg/kg)

T1 sequence (P48169 36-554): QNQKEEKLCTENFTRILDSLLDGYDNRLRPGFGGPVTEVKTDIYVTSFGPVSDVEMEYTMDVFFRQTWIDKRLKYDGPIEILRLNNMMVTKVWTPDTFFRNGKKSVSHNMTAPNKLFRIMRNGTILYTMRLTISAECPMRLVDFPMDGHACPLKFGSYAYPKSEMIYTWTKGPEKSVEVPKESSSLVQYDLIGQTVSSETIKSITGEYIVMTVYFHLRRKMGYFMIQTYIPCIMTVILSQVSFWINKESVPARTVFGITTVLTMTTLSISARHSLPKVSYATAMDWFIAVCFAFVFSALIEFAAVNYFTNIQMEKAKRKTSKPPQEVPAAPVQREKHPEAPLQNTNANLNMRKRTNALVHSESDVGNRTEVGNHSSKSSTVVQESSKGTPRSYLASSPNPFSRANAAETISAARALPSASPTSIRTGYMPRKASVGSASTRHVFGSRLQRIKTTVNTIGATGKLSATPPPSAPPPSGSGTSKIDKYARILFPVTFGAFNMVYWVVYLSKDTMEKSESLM
T1 sequence (P28472 26-473): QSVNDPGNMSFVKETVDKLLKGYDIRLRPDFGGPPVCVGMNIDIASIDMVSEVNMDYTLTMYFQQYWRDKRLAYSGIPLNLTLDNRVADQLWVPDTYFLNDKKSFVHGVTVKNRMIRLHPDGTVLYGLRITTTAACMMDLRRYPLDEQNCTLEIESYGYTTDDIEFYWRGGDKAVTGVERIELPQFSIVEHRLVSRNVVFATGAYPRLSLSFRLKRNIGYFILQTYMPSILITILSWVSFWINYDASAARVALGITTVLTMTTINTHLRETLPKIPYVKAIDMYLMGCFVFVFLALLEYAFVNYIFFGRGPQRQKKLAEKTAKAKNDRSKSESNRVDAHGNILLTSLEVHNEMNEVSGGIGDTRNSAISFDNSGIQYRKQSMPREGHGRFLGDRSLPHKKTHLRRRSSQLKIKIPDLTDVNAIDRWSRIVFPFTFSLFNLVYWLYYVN
T1 sequence (P18507 40-475): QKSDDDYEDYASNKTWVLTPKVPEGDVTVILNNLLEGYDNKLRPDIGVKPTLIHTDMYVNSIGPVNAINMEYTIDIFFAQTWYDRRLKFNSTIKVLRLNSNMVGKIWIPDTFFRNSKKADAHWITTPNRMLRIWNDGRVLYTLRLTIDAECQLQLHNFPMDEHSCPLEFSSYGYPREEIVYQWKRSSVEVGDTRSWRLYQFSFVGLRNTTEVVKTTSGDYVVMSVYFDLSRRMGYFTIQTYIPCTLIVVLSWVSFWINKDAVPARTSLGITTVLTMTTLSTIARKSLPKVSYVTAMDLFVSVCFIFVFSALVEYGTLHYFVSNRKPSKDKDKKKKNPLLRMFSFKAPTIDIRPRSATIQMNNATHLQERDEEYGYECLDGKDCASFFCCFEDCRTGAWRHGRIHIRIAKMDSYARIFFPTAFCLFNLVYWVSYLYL

Structure (SMILES)	Decrease in pain, Formalin Paw Test (Mice) - Late Phase ([1]; at 50, 250, 500 μmol/kg)	Antinociception compared to gabapentin (584 μmol/kg; 100 mg/kg) [1]	Licking Score (15 to 50 minutes post-formalin injection) % Change from Control [1, 6]	Licking Score (15 to 50 minutes post-formalin injection) % Change from Control [1, 7] [%]	Licking Score (15 to 50 minutes post-formalin injection) % Change from Control [1, 8] [%]	Diuresis as measured by increased urine output and Na+/K+ excretion [2]	Decrease in pain, Formalin Paw Test (Mice) - Late Phase ([1]; at 250, 500 μmol/kg)	Solubility issues at the highest dose tested [5]	further results
CCCCNc1cc(C(=O)O)cc(S(N)(=O)=O)c1Oc1ccccc1 [Bumetanide, reference compound]	Significant decrease in pain at 50 (p < 0.05), 250 (p < 0.01),	500 (p < 0.001 ) μmol/kg; 18.2, 91.1, 182 mg/kg; better							Excretion of urine, sodium and potassium (FIG. 33) ([2]; bumetanide PO 30 mg/kg + PBx): substantial excretion; Diuresis in rat ([2]; pre-treatment with inhibitor): diuresis evident; Effect of inhibitor pre-treatment on exposures and half-life ([3]; rats): with inhibitor increased bumetanide exposures and half-life;; Effect on α4β3γ2 GABAA receptor isoform ([4]; up to a concentration of 100 μM, 100 μM GABA): no effect; also recorded: no-effect
CCCCN(CCCC)c1cc(C(=O)O)cc(S(N)(=O)=O)c1Oc1ccccc1 [NTP-2014, 3-Aminosulfonyl-5-N,N-dibutylamino-4-phenoxybenzoic acid]	Significant decrease in pain at 50 (p < 0.05), 250	much better than gabapentin (584 μmol/kg; 100 mg/kg)	−38%	−99	−90	No diuresis as measured by increased urine output and Na+/K+			Urine output, sodium excretion and potassium excretion (FIG. 33) ([2]; NTP-2014 at 10, 50 or 100 mg/kg, PBx pretreated): does not differ appreciably from the vehicle control; also recorded: does not increase; also recorded: did not increase; IC50 ([4]; 100 μM GABA (FIG. 42), read-out: IC50, inhibition of α4β3γ2 GABAA receptor isoform): 16 µM; Effect on currents, α4 GABAA receptor isoform ([4]; 1, 10, 100 μM GABA): inhibiting currents; also recorded: inhibited by NTP-2014 at higher GABA concentrations, but unaffected at lower GABA concentrations; also recorded: inhibition of currents; EC50 ([4]; FIG. 41C, read-out: EC50 in α4 containing GABAA receptor isoforms): 20.2 µM; IC50 ([4]; read-out: IC50, receptors containing the α4 subunit): 10 to 30 µM
CCCCNc1cc(C(=O)NN2CCOCC2)cc(S(N)(=O)=O)c1Oc1ccccc1 [NTP-2024, N-Morpholinyl 3-Aminosulfonyl-5-N-butylamino-4-phenoxybenzamide]		(p < 0.05) μmol/kg; 108, 217 mg/kg; slightly less	−1%	−51	−41		Significant decrease in pain at 250 (p < 0.01), 500	Mild solubility issues	Licking Score % Pain Decrease ([1]; 50 μmol/kg i.p.): 1%; Licking Score % Pain Decrease ([1]; 250 μmol/kg i.p.): 51%; Licking Score % Pain Decrease ([1]; 500 μmol/kg i.p.): 41%; Anti-inflammatory and analgesic effects in formalin paw test (FIG. 16) ([1]; 50, 250, 500 μmole/kg): show anti-inflammatory and analgesic effects; Concentration of NTP-2024 in rat blood ([3]; NTP-2024 100 mg/kg IP, PBx pretreated, 15 m): 3939.86 ng/mL and 4358.32 ng/mL and 6418.34 ng/mL; Concentration of NTP-2000 (bumetanide) in rat blood ([3]; PBx pretreated, 5 m): 4.155 ng/mL and 3.804 ng/mL and 3.493 ng/mL; Concentration of NTP-2000 (bumetanide) in rat blood ([3]; PBx pretreated, 30 m): 13.3456 ng/mL and 10.0076 ng/mL and 8.433 ng/mL; Concentration of NTP-2000 (bumetanide) in rat blood ([3]; PBx pretreated, 1 h): 12.2513 ng/mL and 9.158 ng/mL and 8.065 ng/mL; Concentration of NTP-2000 (bumetanide) in rat blood ([3]; PBx pretreated, 2 h): 15.0994 ng/mL and 8.16 ng/mL and 8.949 ng/mL; Degradation to bumetanide in the blood ([3]; i.p., rats): does not readily degrade to bumetanide; Concentrations in blood and in brain tissue ([3]; rats pretreated with inhibitor): Rats pretreated with inhibitor demonstrated high concentrations
CCCCNc1cc(C(=O)N(C)CCCN(C)C)cc(S(N)(=O)=O)c1Oc1ccccc1 [NTP-2026, N-(3-(Dimethylamino)propyl)-N-methyl 3-Aminosulfonyl-5-N-butylamino-4-phenoxybenzamide]			no effects	−49	−82	No diuresis as measured by increased urine output and Na+/K+	Significant decrease in pain at 250 (p < 0.01), 500	Significant solubility issues	
